# Assays:
# Assay type in all cases: cell-based, mouse
# Details in all cases: 1 week-old, after 1 week of stress treatment, SLO 10 μg/mL, ATP 2.4 mM, Ca 2 mM CaCl2
# [1] = system: Fat somatic cells; test: Percent of cells demonstrating pluripotent phenotype after stress treatment, fat cells
# Text: (§1) Stress alteration of mature somatic cells procured from various adult tissues. To examine whether ACCs could be generated not only mature lymphocytes but also other types of somatic cells, brain, skin, muscle, fat, bone marrow, lung and liver were harvested from Oct4-GFP (GOF) mice^8. Cells were isolated from the tissue samples, dissociated into single cells, and treated with different physical and or chemical stress conditions. The efficiency of the process to alter the cells differed as a function of both the source of cells and the stress condition(s) to which the cells were exposed (FIG. 7A). The ability of stress to alter mature cells to express Oct4, differed depending on the derivation of cells, but stress was able to alter cells to express Oct4 to some degree in mature cells derived from all three germ layers (FIG. 7A). ACC colonies derived from any mature tissue expressed pluripotent markers, E-cadherin, Nanog, PCAM-1 and AP (data not shown), and ES specific marker genes (FIG. 7B). Significant physical and chemical stresses altered mature somatic cells to revert to a stem cell state, despite of the source of tissues and derivation of the germ layers.
# (§2) Exposure to external stimuli—stress treatment. […]
# (§3) Fluorescence-Activated Cell Sorting and Flow Cytometry. […] Cells were sorted on a BD FACSAria SORP and analyzed on a BD LSRII with BD FACSDiva Software (BD Biosciences).
# [2] = system: Fibroblast; test: Percent of cells demonstrating pluripotent phenotype after stress treatment, fibroblasts
# Text: as §1, §2, §3
# [3] = system: Lung somatic cells; test: Percent of cells demonstrating pluripotent phenotype after stress treatment, lung cells
# Text: as §1, §2, §3
# [4] = system: Brain somatic cells; test: Percent of cells demonstrating pluripotent phenotype after stress treatment, brain cells
# [5] = system: Muscle somatic cells; test: Percent of cells demonstrating pluripotent phenotype after stress treatment, muscle cells
# Text: as §1, §2, §3
# [6] = system: Bone Marrow somatic cells; test: Percent of cells demonstrating pluripotent phenotype after stress treatment, bone marrow cells
# Text: as §1, §2, §3
substance,measurement,setting,value
streptolysin O [SLO],Percent of cells demonstrating pluripotent phenotype,[1],32.8%
same,Percent of cells demonstrating pluripotent phenotype,[2],15.2%
same,Percent of cells demonstrating pluripotent phenotype,[3],18.4%
same,Percent of cells demonstrating pluripotent phenotype,[4],10.3%
same,Percent of cells demonstrating pluripotent phenotype,[5],20.5%
same,Percent of cells demonstrating pluripotent phenotype,[6],13.2%

# — patent US11963977B2, “Generating pluripotent cells de novo” (VCell Therapeutics, Inc., priority 2012, dated 2024)
